According to patent US11427590B2, “Small molecule inhibitors of neutral sphingomyelinase 2 (nSMase2) for the treatment of neurodegenerative diseases” (The Johns Hopkins University, priority 2017, dated 2022):

How the values were obtained:
[1] = background statement on known inhibitor; cited from earlier work
[2] = system: rat astrocytes; assay: Inhibition of exosome release from primary astrocytes in vitro; assay type: cell-based; conditions: 0.3-10 μM, 2 h after treatment, vs DMSO (0.02%)
Procedure: The effect of nSMase2 inhibitors on the manufacturing and release of ceramide rich exosomes from primary astrocytes was investigated as previously described. Dickens, et al. Briefly, rat astrocytes are seeded onto 6-well plates at a density of 20,000 cells/well. Twenty-four hours after seeding, astrocytes are washed with PBS and the medium changed to media without FBS. Absence of FBS mimics a trophic factor withdrawal stimulus causing the release of exosomes via a nSMase2-dependent pathway. Astrocytes are then treated with nSMase2 inhibitors at concentrations in the range 0.03-30 μM. DMSO (0.02%) is used as control. Two hours after treatment, media is collected and centrifuged at 2700 g for 15 min (4° C.). Supernatant is further centrifuged at 10,000 g for 15 min (4° C.) to remove large particles such as apoptotic bodies. Astrocyte-derived extracellular vesicles (EVs) are isolated via ultracentrifugation at 100,000 g for 3 h at 4° C. Fractions containing EV are washed twice with 5 ml PBS and the final pellet resuspended in PBS. This isolation procedure results in the isolation of EVs with a narrow size range and protein markers consistent with exosomes. Dickens, et al. The number of EVs is quantified using ZetaView Nanoparticle Tracker (Particle Metrix GmBH, Meerbusch, Germany) and the corresponding ZetaVeiw software (8.03.04.01). Nanosphere size standard 100 nm (Thermo Scientific) is used to calibrate the instrument prior to sample readings. For each sample 1 mL of the supernatant is injected into the sample-carrier cell and the particle count measured at 5 positions, with 2 cycles of reading per position. Cells are washed with PBS after every sample. Mean concentration of EVs/mL (±SEM) is calculated from 6 replicates. This screening assay is reliable with a Z′=0.75.
Referring now to FIG. 4A and FIG. 4B, the ability of compound 38 and several of its analogs to inhibit exosome release in vitro was evaluated as previously described. […] Two hours after treatment, exosomes were isolated from the media and quantified using ZetaView Nanoparticle Tracker. The mean concentration of exosomes (EVs/mL±SEM) was calculated from 6 replicate experiments (see FIG. 4). […] Baseline exosome release can be variable between experiments; as a result, inhibition is always compared relative to vehicle treatment within the same experiment. Structures of compounds with their corresponding IC50s are provided in the second row of FIG. 4.

[3] = molecular target: acid sphinghomyelinase (Homo sapiens (Human), UniProt P17405); assay: Inhibition of related enzyme acid sphingomyelinase; assay type: biochemical; conditions: related enzyme (phosphodiesterase)
[4] = Phase I metabolic stability in human liver microsomes; assay type: in vitro ADME; conditions: 37° C.
Procedure: Phase I metabolic stability in both mouse and human liver microsomes was performed as described previously. Rais et al. Briefly, compounds are spiked in liver microsomes (mouse, human) and incubated in an orbital shaker at 37° C. […] Compound disappearance is monitored over time using LC/MS/MS.

[5] = system: alkaline phosphatase; assay: Inhibition of related enzyme alkaline phosphatase; conditions: related enzyme (phosphomonoesterase)
Procedure: Phosphorylcholine undergoes dephosphorylation in a reaction catalyzed by alkaline phosphatase (4 U/mL) to produce choline which in turn is oxidized by choline oxidase (0.1 U/mL) to betaine and hydrogen peroxide (H2O2). Hydrogen peroxide is made to react with Amplex red (50 μM) in the presence of horseradish peroxidase (HRP, 1 U/mL) to generate the fluorescent molecule resorufin. Generation of fluorescence is monitored by measuring relative florescence units (RFU) with excitation at 530 nm and emission at 590 nm. Extent of fluorescence is directly proportional to the extent of SM hydrolysis. Substrate stock solution is prepared in 2% Triton X-100 and sonicated for 1 min. Reactions are carried out for 1 h at 37° C. in 100 mM Tris-HCl pH 7.4, 10 mM MgCl2, 0.2% Triton X-100. This assay has been optimized in 384-well format (50 μL total volume per well) under conditions where nSMase2-catalyzed hydrolysis of SM is linear with respect to nSMase2 concentration, time of incubation and SM concentration (FIGS. 3A-3C). The assay has high reliability (Z′=0.8-0.9). It is used for compound screening, IC50 determinations and mode of inhibition studies. IC50 determinations are carried out in duplicate eight-point dose response curves. A counter screen is concomitantly carried out to identify false positives resulting from inhibition of the coupling enzymes. […]

[6] = Pharmacokinetics, plasma and brain levels in mice
Procedure: Blood was obtained via cardiac puncture and brain tissue was dissected at 0.25, 0.5, 1, 2, 4, 6 and 8 h post dose (n=3 per gender and time point). Plasma was harvested from blood by centrifugation. Subsequently, samples were extracted from plasma and brain by a one-step protein precipitation using acetonitrile followed by vortexing for […] and centrifugation (10,000 g for 10 min) as we have described previously. Rais, et al. Once extracted, the samples were reconstituted into a mobile phase and analyzed via LC/MS/MS. Plasma concentrations (nM) as well as tissue concentrations (pmol/g) were determined and plots of mean plasma concentration vs. time were constructed for PK analysis. Non-compartmental-analysis modules in WinNonlin® (version 5.3) were used to assess pharmacokinetic parameters including maximal concentration (Cmax), time to Cmax (Tmax), area under the curve extrapolated to infinity (AUC0-∞) and brain-to-plasma (B/P) ratios.

[7] = system: GFAP-GFP mice; assay: Inhibition of exosome release in vivo after striatal IL-1β injection; conditions: mouse
Procedure: Striatal injections of IL-1β and exosome measurements are performed as previously described by our group in adult (2-3 month) male GFAP-GFP mice (Jackson Laboratories). Dickens, et al.; McCluskey, et al. Mice are anesthetized with 3% Isoflourane (Baxter) in oxygen (Airgas), and placed in a stereotaxic frame (Stoelting Co.). A small burr hole is drilled in the skull over the left striatum using a dental drill (Fine Scientific Tools). IL1β (0.1 ng/3 μl) is injected (total volume of 3 μl) at the rate 0.5 μl/min via a pulled glass capillary tip diameter <50 μm using the stereotaxic coordinates: A/P+1; M/L-2; -3 D/V. Following infusion, the capillary is held in place for 5 min to allow for solution to diffuse into the tissue. Animals are sacrificed at 2, 12 or 24 h by an overdose of anesthetic, and transcardially perfused with ice-cold saline containing heparin (20 μl per 100 ml, Sigma). Blood is rapidly isolated and flash frozen. […]
GFAP-GFP mice that release green EVs from astrocytes into the systemic circulation were used so that exosome release from astrocytes in plasma can be followed. […] The concentration of immunoprecipitated GFP+ EVs is quantified using ZetaView nanoparticle tracking analysis (Particle Metrix) as described in the cell-based exosome release. […]

[8] = system: panel of 44 selected targets

Sequence of acid sphinghomyelinase (P17405 47-631): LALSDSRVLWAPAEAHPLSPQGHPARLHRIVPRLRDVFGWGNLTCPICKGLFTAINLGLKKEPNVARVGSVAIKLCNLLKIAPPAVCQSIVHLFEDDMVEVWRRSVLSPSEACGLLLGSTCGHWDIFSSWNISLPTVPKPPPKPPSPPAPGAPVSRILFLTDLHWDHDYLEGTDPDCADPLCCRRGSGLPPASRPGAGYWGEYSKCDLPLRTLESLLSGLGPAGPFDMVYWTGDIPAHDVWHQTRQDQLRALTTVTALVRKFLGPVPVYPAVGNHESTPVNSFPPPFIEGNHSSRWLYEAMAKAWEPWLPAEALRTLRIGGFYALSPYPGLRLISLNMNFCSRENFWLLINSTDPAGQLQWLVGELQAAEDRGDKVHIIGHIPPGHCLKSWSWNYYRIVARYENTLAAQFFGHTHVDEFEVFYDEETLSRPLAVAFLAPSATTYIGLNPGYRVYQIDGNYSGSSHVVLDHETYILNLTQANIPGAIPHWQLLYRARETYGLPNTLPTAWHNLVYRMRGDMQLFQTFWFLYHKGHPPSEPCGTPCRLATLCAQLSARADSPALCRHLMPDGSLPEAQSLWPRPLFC

Row | Structure (SMILES) | solubility [1] | exosome release from astrocytes [2] | inhibition of acid sphinghomyelinase [3] | Human Liver Microsome (+) NADPH Remaining at 60 min [4] | inhibition of alkaline phosphatase [5] | systemic exposure ([6]; 10 mg/kg i.p.) | brain exposure ([6]; 10 mg/kg peroral) | plasma exposure ([6]; 10 mg/kg peroral) | exosomes in plasma after striatal IL-1β injection [7] | inhibition of positive hits ([8]; 10 μM, all positive hits) | segregation in potency between off targets and nSMase2 ([8]; off targets vs nSMase2)
1 | O=C(/C=C/c1ccc(/C=C/C(=O)Nc2ccc(C3=NCCN3)cc2)cc1)Nc1ccc(C2=NCCN2)cc1 [GW4869] | poor solubility | – | – | – | – | – | – | – | – | – | –
2 | COc1ccc(-c2c(C)nc3c(N4CC[C@@H](NC(=O)Oc5ccccc5)C4)cc(C)nn23)cc1OC [compound 38, Phenyl (R)-(1-(3-(3,4-dimethoxyphenyl)-2,6-dimethylimidazo[1,2-b]pyridazin-8-yl)pyrrolidin-3-yl) carbamate] | – | decreased the number of exosomes released from astrocytes in a dose dependent manner | not inhibiting | 103 ± 14% | not inhibiting | high systemic exposures | high brain exposures | high plasma exposures | significantly reduced the increased exosomes | less than 100% | ≥ 20 fold
